{
  "source": "ChEMBL document CHEMBL1201862",
  "about": "“PubChem BioAssay data set” (2004)",
  "test_in_all_cases": "NCI tumour cell line growth inhibition, 48 h",
  "key": {"A498": {"test_system": "A498"}, "A549": {"test_system": "A549"}, "ACHN": {"test_system": "ACHN"}, "HL-60": {"test_system": "HL-60"}, "HT-29": {"test_system": "HT-29"}, "IGROV-1": {"test_system": "IGROV-1"}, "K562": {"test_system": "K562"}, "LOX IMVI": {"test_system": "LOX IMVI"}, "MDA-MB-435": {"test_system": "MDA-MB-435"}, "Malme-3M": {"test_system": "Malme-3M"}, "NCI-H226": {"test_system": "NCI-H226"}, "NCI-H522": {"test_system": "NCI-H522"}, "PC-3": {"test_system": "PC-3"}, "SF-539": {"test_system": "SF-539"}, "SK-MEL-28": {"test_system": "SK-MEL-28"}, "SK-MEL-2": {"test_system": "SK-MEL-2"}, "SN12C": {"test_system": "SN12C"}, "SW-620": {"test_system": "SW-620"}, "TK-10": {"test_system": "TK-10"}, "UACC-62": {"test_system": "UACC-62"}},
  "note": "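A five-concentration, 48-hour dose response in 96-well plates underlies each endpoint, interpolated linearly between surrounding concentrations. GI50 marks 50% less growth.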 Activity calls are given as the source filed them. No stated cut-off is given here; in the data, active = GI50 up to about 1.1 µM and inactive = higher.",
  "data": [
    {"smiles": "S=c1sscc1N1CCSc2ssc(=S)c21", "values": [
      {"measurement": "GI50", "setting": "A498", "result": "32.1 µM (inactive)"},
      {"measurement": "GI50", "setting": "A549", "result": "48.6 µM (inactive)"},
      {"measurement": "GI50", "setting": "ACHN", "result": "30.5 µM (inactive)"},
      {"measurement": "GI50", "setting": "HL-60", "result": "> 100 µM (inactive)"},
      {"measurement": "GI50", "setting": "HT-29", "result": "> 100 µM (inactive)"},
      {"measurement": "GI50", "setting": "IGROV-1", "result": "21.1 µM (inactive)"},
      {"measurement": "GI50", "setting": "K562", "result": "> 100 µM (inactive)"},
      {"measurement": "GI50", "setting": "LOX IMVI", "result": "28.4 µM (inactive)"},
      {"measurement": "GI50", "setting": "MDA-MB-435", "result": "> 100 µM (inactive)"},
      {"measurement": "GI50", "setting": "Malme-3M", "result": "> 100 µM (inactive)"},
      {"measurement": "GI50", "setting": "NCI-H226", "result": "67.8 µM (inactive)"},
      {"measurement": "GI50", "setting": "NCI-H522", "result": "19.8 µM (inactive)"},
      {"measurement": "GI50", "setting": "PC-3", "result": "48.1 µM (inactive)"},
      {"measurement": "GI50", "setting": "SF-539", "result": "42.3 µM (inactive)"},
      {"measurement": "GI50", "setting": "SK-MEL-28", "result": "> 100 µM (inactive)"},
      {"measurement": "GI50", "setting": "SK-MEL-2", "result": "78.2 µM (inactive)"},
      {"measurement": "GI50", "setting": "SN12C", "result": "25.8 µM (inactive)"},
      {"measurement": "GI50", "setting": "SW-620", "result": "> 100 µM (inactive)"},
      {"measurement": "GI50", "setting": "TK-10", "result": "24.8 µM (inactive)"},
      {"measurement": "GI50", "setting": "UACC-62", "result": "67.1 µM (inactive)"}
    ]},
    {"smiles": "CNNC1=NS(=O)(=O)c2cc(C(=O)OC)c(Cl)cc2S1", "values": [
      {"measurement": "GI50", "setting": "A498", "result": "> 10 µM (inactive)"},
      {"measurement": "GI50", "setting": "A549", "result": "> 10 µM (inactive)"},
      {"measurement": "GI50", "setting": "ACHN", "result": "> 10 µM (inactive)"},
      {"measurement": "GI50", "setting": "HL-60", "result": "> 10 µM (inactive)"},
      {"measurement": "GI50", "setting": "HT-29", "result": "> 10 µM (inactive)"},
      {"measurement": "GI50", "setting": "IGROV-1", "result": "> 10 µM (inactive)"},
      {"measurement": "GI50", "setting": "K562", "result": "> 10 µM (inactive)"},
      {"measurement": "GI50", "setting": "LOX IMVI", "result": "> 10 µM (inactive)"},
      {"measurement": "GI50", "setting": "MDA-MB-435", "result": "> 10 µM (inactive)"},
      {"measurement": "GI50", "setting": "Malme-3M", "result": "> 10 µM (inactive)"},
      {"measurement": "GI50", "setting": "NCI-H226", "result": "> 10 µM (inactive)"},
      {"measurement": "GI50", "setting": "NCI-H522", "result": "> 10 µM (inactive)"},
      {"measurement": "GI50", "setting": "PC-3", "result": "> 10 µM (inactive)"},
      {"measurement": "GI50", "setting": "SF-539", "result": "> 10 µM (inactive)"},
      {"measurement": "GI50", "setting": "SK-MEL-28", "result": "> 10 µM (inactive)"},
      {"measurement": "GI50", "setting": "SK-MEL-2", "result": "> 10 µM (inactive)"},
      {"measurement": "GI50", "setting": "SN12C", "result": "> 10 µM (inactive)"},
      {"measurement": "GI50", "setting": "SW-620", "result": "> 10 µM (inactive)"},
      {"measurement": "GI50", "setting": "TK-10", "result": "> 10 µM (inactive)"},
      {"measurement": "GI50", "setting": "UACC-62", "result": "> 10 µM (inactive)"}
    ]},
    {"smiles": "C=CCn1c(=O)c(Br)nn(CCOCP(=O)(OCC)OCC)c1=O", "values": [
      {"measurement": "GI50", "setting": "A498", "result": "> 100 µM (inactive)"},
      {"measurement": "GI50", "setting": "A549", "result": "> 100 µM (inactive)"},
      {"measurement": "GI50", "setting": "ACHN", "result": "> 100 µM (inactive)"},
      {"measurement": "GI50", "setting": "HL-60", "result": "> 100 µM (inactive)"},
      {"measurement": "GI50", "setting": "IGROV-1", "result": "> 100 µM (inactive)"},
      {"measurement": "GI50", "setting": "K562", "result": "> 100 µM (inactive)"},
      {"measurement": "GI50", "setting": "LOX IMVI", "result": "> 100 µM (inactive)"},
      {"measurement": "GI50", "setting": "MDA-MB-435", "result": "> 100 µM (inactive)"},
      {"measurement": "GI50", "setting": "Malme-3M", "result": "> 100 µM (inactive)"},
      {"measurement": "GI50", "setting": "NCI-H226", "result": "> 100 µM (inactive)"},
      {"measurement": "GI50", "setting": "NCI-H522", "result": "> 100 µM (inactive)"},
      {"measurement": "GI50", "setting": "PC-3", "result": "> 100 µM (inactive)"},
      {"measurement": "GI50", "setting": "SF-539", "result": "> 100 µM (inactive)"},
      {"measurement": "GI50", "setting": "SK-MEL-28", "result": "> 100 µM (inactive)"},
      {"measurement": "GI50", "setting": "SK-MEL-2", "result": "> 100 µM (inactive)"},
      {"measurement": "GI50", "setting": "SN12C", "result": "> 100 µM (inactive)"},
      {"measurement": "GI50", "setting": "SW-620", "result": "> 100 µM (inactive)"}
    ]},
    {"smiles": "Cc1ccc(S(=O)(=O)NNC(C[N+](=O)[O-])c2ccccc2)cc1", "note": "(stereo unspecified)", "values": [
      {"measurement": "GI50", "setting": "A498", "result": "16.1 µM (inactive)"},
      {"measurement": "GI50", "setting": "A549", "result": "16.7 µM (inactive)"},
      {"measurement": "GI50", "setting": "ACHN", "result": "16.1 µM (inactive)"},
      {"measurement": "GI50", "setting": "HL-60", "result": "3.71 µM (inactive)"},
      {"measurement": "GI50", "setting": "HT-29", "result": "2.02 µM (inactive)"},
      {"measurement": "GI50", "setting": "IGROV-1", "result": "7.23 µM (inactive)"},
      {"measurement": "GI50", "setting": "K562", "result": "0.787 µM (active)"},
      {"measurement": "GI50", "setting": "LOX IMVI", "result": "3.64 µM (inactive)"},
      {"measurement": "GI50", "setting": "MDA-MB-435", "result": "2.91 µM (inactive)"},
      {"measurement": "GI50", "setting": "Malme-3M", "result": "29 µM (inactive)"},
      {"measurement": "GI50", "setting": "NCI-H226", "result": "26.3 µM (inactive)"},
      {"measurement": "GI50", "setting": "NCI-H522", "result": "23.4 µM (inactive)"},
      {"measurement": "GI50", "setting": "PC-3", "result": "57.9 µM (inactive)"},
      {"measurement": "GI50", "setting": "SF-539", "result": "27.1 µM (inactive)"},
      {"measurement": "GI50", "setting": "SK-MEL-2", "result": "34.2 µM (inactive)"},
      {"measurement": "GI50", "setting": "SN12C", "result": "32 µM (inactive)"},
      {"measurement": "GI50", "setting": "SW-620", "result": "11.5 µM (inactive)"},
      {"measurement": "GI50", "setting": "TK-10", "result": "24.2 µM (inactive)"},
      {"measurement": "GI50", "setting": "UACC-62", "result": "26.1 µM (inactive)"}
    ]}
  ]
}
